# Measurements reported in article PMC4290084, “Multiplex Imaging and Cellular Target Identification of Kinase Inhibitors via an Affinity-Based Proteome Profiling Approach” (Scientific Reports, 2015).
# Columns and labels:
# Aurora kinase A (AKA) [1] = molecular target: T1, Aurora kinase A (AKA) (Homo sapiens, UniProt O14965); assay: Kinase-Glo in vitro kinase inhibition assay with recombinant AKA; format: biochemical
# T1 construct: gene AURKA; recombinant AKA
# T1 sequence (O14965 1-403): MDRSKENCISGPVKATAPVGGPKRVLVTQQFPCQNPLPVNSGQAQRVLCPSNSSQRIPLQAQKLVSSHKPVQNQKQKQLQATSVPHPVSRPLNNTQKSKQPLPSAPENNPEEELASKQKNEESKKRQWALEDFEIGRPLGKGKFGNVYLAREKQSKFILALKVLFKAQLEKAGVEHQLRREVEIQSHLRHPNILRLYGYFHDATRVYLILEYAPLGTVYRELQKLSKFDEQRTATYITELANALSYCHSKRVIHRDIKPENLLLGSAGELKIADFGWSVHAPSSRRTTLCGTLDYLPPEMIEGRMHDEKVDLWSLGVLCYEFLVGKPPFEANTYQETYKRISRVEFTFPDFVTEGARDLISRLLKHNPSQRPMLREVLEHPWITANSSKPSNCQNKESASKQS
# Aurora kinase A (AKA) [2] = molecular target: T1, Aurora kinase A (AKA); assay: Kinase-Glo in vitro kinase inhibition assay with recombinant AKA; also photoaffinity labeling with PD/WB and IP in HeLa cells; format: biochemical
Structure (SMILES),IC50 (Aurora kinase A (AKA) [1]),IC50 (Aurora kinase A (AKA) [2])
COc1cc(Nc2ncc3c(n2)-c2ccc(Cl)cc2C(c2c(F)cccc2OC)=NC3)ccc1C(=O)NCCNC(=O)OC1CC/C=C/CCC1 (stereo not drawn) [MLN-3],67.2 ± 0.4 nM,
C#CCCC1(CCNC(=O)c2ccc(Nc3ncc4c(n3)-c3ccc(Cl)cc3C(c3c(F)cccc3OC)=NC4)cc2OC)N=N1 [MLN-2],,15.1 ± 0.5 nM
C#CCNC(=O)c1ccc(Nc2ncc3c(n2)-c2ccc(Cl)cc2C(c2c(F)cccc2OC)=NC3)cc1OC [MLN-1],23.3 ± 0.5 nM,
